This passage reports EC50 results from patent US20260042769A1, “TRIARYL AGONISTS OF ALPHA-2 ADRENERGIC RECEPTORS” (ALCEPTOR THERAPEUTICS, INC., priority 2023, published 2026).

The assay deals with T1, human ADRA2B receptor (Homo sapiens, UniProt P18089).
T1 construct: expressed in transfected cells
T1 sequence (P18089 1-450): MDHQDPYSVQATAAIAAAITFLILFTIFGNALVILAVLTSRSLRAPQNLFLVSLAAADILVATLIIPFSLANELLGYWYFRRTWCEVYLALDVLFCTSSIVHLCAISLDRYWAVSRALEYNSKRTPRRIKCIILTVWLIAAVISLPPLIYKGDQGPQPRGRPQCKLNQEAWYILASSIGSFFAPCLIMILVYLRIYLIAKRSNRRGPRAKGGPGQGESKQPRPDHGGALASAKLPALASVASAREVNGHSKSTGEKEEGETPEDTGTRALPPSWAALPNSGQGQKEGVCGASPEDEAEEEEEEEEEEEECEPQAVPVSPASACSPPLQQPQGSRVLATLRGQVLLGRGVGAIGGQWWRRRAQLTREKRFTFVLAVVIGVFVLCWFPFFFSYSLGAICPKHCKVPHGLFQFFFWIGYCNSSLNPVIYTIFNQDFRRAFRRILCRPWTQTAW
The experiment in a line: GTPγS agonist assay, ADRA2B receptor. The format is biochemical. As to conditions: read-out: GTPase - Human Alpha2B EC50. A digest of the protocol: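 CHO-K1 membranes stably expressing human ADRA2B (5 μg protein) in 20 mM HEPES, 10 mM MgCl2, 200 mM NaCl with GDP, preincubated 10 min at room temperature with compound. Binding reaction 1 h at 37° C; bound label collected on GF/C filters, washed, read by scintillation counting.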

pEC50: −log10 of the molar value. Some results are limits rather than exact numbers.

By pEC50 is commonly meant the negative decadic logarithm of the EC50, by convention in mol/L. As for `Cc1cccc(C(Cc2cc(C(F)(F)F)nn2C)c2c[nH]cn2)c1C` (centres unmarked) [Compound 310, 5-[2-(4-imidazolyl)-2-(2,3-xylyl)ethyl]-1-methyl-3-(trifluoromethyl)pyrazole], the negative-log EC50 (pEC50) is greater than 8.00.
To `COc1cccc(C[C@@H](c2cnc[nH]2)c2cccc3c2COC3)n1` [Compound 12, 2-[(2R)-2-(1,3-dihydro-2-benzofuran-4-yl)-2-(1H-imidazol-4-yl)ethyl]-6-methoxypyridine] belongs less than 6.30; to `Cc1cnc(CC(c2c[nH]cn2)c2cccc3c2OCC3)s1` (centres unmarked) [Compound 279, 2-[2-(2,3-dihydro-1-benzofuran-7-yl)-2-(4-imidazolyl)ethyl]-5-methyl-1,3-thiazole], 7.30 to 8.00; to `COc1cccc(C[C@H](c2cccc(C)c2)c2cnc[nH]2)n1` [Compound 24, 2-[(2R)-2-(1H-imidazol-4-yl)-2-(3-methylphenyl)ethyl]-6-methoxypyridine], less than 6.30.
In the case of `COc1cccc(C[C@@H](c2c[nH]cn2)c2cccc(Cl)c2OC)n1` [Compound 8, 2-[(2R)-2-(3-chloro-2-methoxyphenyl)-2-(1H-imidazol-4-yl)ethyl]-6-methoxypyridine], the pEC50 was less than 6.30.
To `Fc1cccc(C(Cc2cccnn2)c2c[nH]cn2)c1Cl` (centres unmarked) [Compound 218, 3-[2-(2-chloro-3-fluorophenyl)-2-(4-imidazolyl)ethyl] pyridazine] belongs less than 6.30; to `COc1nccc(CC(c2c[nH]cn2)c2cccc(Cl)c2Cl)n1` (centres unmarked) [Compound 200, 4-[2-(2,3-dichlorophenyl)-2-(4-imidazolyl)ethyl]-2-methoxypyrimidine], greater than 8.00; to `COc1nccc(CC(c2c[nH]cn2)c2cccc3cn[nH]c23)n1` (centres unmarked) [Compound 172, 7-[1-(4-imidazolyl)-2-(2-methoxy-4-pyrimidinyl)ethyl]-1H-indazole], less than 6.30.
To `COc1nccc(CC(c2c[nH]cn2)c2cccc(C#N)c2C)n1` (centres unmarked) [Compound 171, 6-[1-(4-imidazolyl)-2-(2-methoxy-4-pyrimidinyl)ethyl]-2-toluonitrile] belongs 6.30 to 7.30.
As to `COc1nccc(CC(c2c[nH]cn2)c2cccc3c2OCCCO3)n1` (centres unmarked) [Compound 355, 4-[2-(3,4-dihydro-2H-1,5-benzodioxepin-6-yl)-2-(4-imidazolyl)ethyl]-2-methoxypyrimidine], the pEC50 is 6.30 to 7.30.
As for `Cc1cc(C[C@@H](c2c[nH]cn2)c2cccc(C)c2C)no1` [Compound 135, 3-[(R)-2-(4-imidazolyl)-2-(2,3-xylyl)ethyl]-5-methyl-isoxazole], the negative-log EC50 (pEC50) was less than 6.30.
To `COCCNc1cccc(CC(c2cnc[nH]2)c2cccc(C)c2C)n1` (centres unmarked) [Compound 84, 6-[2-(2,3-dimethylphenyl)-2-(1H-imidazol-4-yl)ethyl]-N-(2-methoxyethyl) pyridin-2-amine] belongs greater than 8.00; to `COc1cccc(CC(c2c[nH]cn2)c2ccnc(C)c2C)n1` (centres unmarked) [Compound 13, 4-[1-(1H-imidazol-4-yl)-2-(6-methoxypyridin-2-yl)ethyl]-2,3-dimethylpyridine], less than 6.30; to `FC(F)(F)Oc1ccccc1[C@H](Cc1ccccn1)c1cnc[nH]1` [Compound 29, 2-[(2S)-2-(1H-imidazol-4-yl)-2-[2-(trifluoromethoxy)phenyl]ethyl] pyridine], less than 6.30.
To `Cc1cccc([C@@H](Cc2cscn2)c2c[nH]cn2)c1C` [Compound 119, 4-[(R)-2-(4-imidazolyl)-2-(2,3-xylyl)ethyl]-1,3-thiazole] belongs greater than 8.00; to `COc1cccc(C[C@@H](c2c[nH]cn2)c2cccc(C)c2C)n1` [Compound 4, 2-[(2R)-2-(2,3-dimethylphenyl)-2-(1H-imidazol-4-yl)ethyl]-6-methoxypyridine], 6.30 to 7.30; to `CCOc1c(F)cccc1C(Cc1cccnn1)c1c[nH]cn1` (centres unmarked) [Compound 231, 3-[2-(2-ethoxy-3-fluorophenyl)-2-(4-imidazolyl)ethyl] pyridazine], less than 6.30.
To `c1cnnc(C[C@H](c2c[nH]cn2)c2cccc3c2OCC3)c1` [Compound 363, 3-[(S)-2-(2,3-dihydro-1-benzofuran-7-yl)-2-(4-imidazolyl)ethyl]pyridazine] belongs less than 6.30.
With `Cc1cccc(C(Cc2ccc(=O)[nH]n2)c2c[nH]cn2)c1C` (centres unmarked) [Compound 86, 6-[2-(2,3-dimethylphenyl)-2-(1H-imidazol-4-yl)ethyl]-2,3-dihydropyridazin-3-one], the pEC50 was greater than 8.00.
To `Cc1cccc([C@H](Cc2ccnn2C)c2c[nH]cn2)c1C` [Compound 131, 5-[(S)-2-(4-imidazolyl)-2-(2,3-xylyl)ethyl]-1-methyl-pyrazole] belongs 7.30 to 8.00.
To `COc1nccc(C[C@H](c2c[nH]cn2)c2cccc(C)c2C)n1` [Compound 53, 4-[(2S)-2-(2,3-dimethylphenyl)-2-(1H-imidazol-4-yl)ethyl]-2-methoxy-pyrimidine] belongs greater than 8.00; to `Cc1cccc([C@H](Cc2ccnc(CF)n2)c2c[nH]cn2)c1C` [Compound 152, 4-[(S)-2-(4-imidazolyl)-2-(2,3-xylyl)ethyl]-2-(fluoromethyl) pyrimidine], 6.30 to 7.30; to `Cc1cccc([C@H](Cc2ccn(C)n2)c2c[nH]cn2)c1C` [Compound 106, 3-[(S)-2-(4-imidazolyl)-2-(2,3-xylyl)ethyl]-1-methylpyrazole], 7.30 to 8.00.
On to `Cc1cccc(C(Cc2ccc(Cl)cn2)c2cnc[nH]2)c1C` (centres unmarked) [Compound 90, 5-chloro-2-[2-(2,3-dimethylphenyl)-2-(1H-imidazol-4-yl)ethyl] pyridine], for which the pEC50 is greater than 8.00.
To `COc1cccc(C[C@H](c2c[nH]cn2)c2cccc(Cl)c2Cl)n1` [Compound 99, 4-[(S)-1-(2,3-dichlorophenyl)-2-(6-methoxy-2-pyridyl)ethyl] imidazole] belongs less than 6.30; to `c1ccc(C[C@@H](c2cnc[nH]2)c2cccc3c2CCO3)nc1` [Compound 42, 2-[(2R)-2-(2,3-dihydro-1-benzofuran-4-yl)-2-(1H-imidazol-4-yl)ethyl] pyridine], 6.30 to 7.30; to `Cc1cccc([C@@H](Cc2ccnc(C(F)(F)F)n2)c2cnc[nH]2)c1C` [Compound 73, 4-[(2R)-2-(2,3-dimethylphenyl)-2-(1H-imidazol-4-yl)ethyl]-2-(trifluoromethyl) pyrimidine], less than 6.30.
To `COc1nccc(CC(c2c[nH]cn2)c2cc(Cl)ccc2C)n1` (centres unmarked) [Compound 184, 4-[2-(5-chloro-2-tolyl)-2-(4-imidazolyl)ethyl]-2-methoxypyrimidine] belongs 6.30 to 7.30; to `COc1cccc(C[C@@H](c2cnc[nH]2)c2cccc(C)c2OC)n1` [Compound 10, 2-[(2R)-2-(1H-imidazol-4-yl)-2-(2-methoxy-3-methylphenyl)ethyl]-6-methoxypyridine], less than 6.30; to `Fc1ccc(C(Cc2cccnn2)c2c[nH]cn2)c(F)c1Cl` (centres unmarked) [Compound 173, 3-[2-(3-chloro-2,4-difluorophenyl)-2-(4-imidazolyl)ethyl] pyridazine], less than 6.30.
To `COc1cccc(C[C@@H](c2c[nH]cn2)c2cccc(C)c2F)n1` (single isomer, unassigned) [Compound 6] belongs 6.30 to 7.30; to `c1cc2c(c([C@@H](Cc3cnn(C4CC4)c3)c3c[nH]cn3)c1)OCC2` [Compound 289], less than 6.30.
